# How the values were obtained:
# DU145 cells = test: Growth of DU145 cells (protein and DNA assay, 72 h); type: cell-based, human; settings: 50% inhibition of cell growth
# Method: The cells used correspond to two cell lines: metastatic cells of human prostate cancer (DU145) and murine lymphoid cells transfected with the human bcl2 gene (BAF3 bcl2).
# The procedure used for the tests on DU145 is as follows: • 10^5 cells are incubated in the various wells of a microplate in 1 ml of culture medium.
# The compounds are added 4 hours after placing the cells in the wells.
# After 72 hours, the cells are removed at different times. The DU145 cells are washed twice with PBS and recovered directly with 0.1M sodium chloride.
# The effect on the growth of the DU145 cells is measured by protein assay according to the Lowry method (Lowry, O. H., Rosenbrough, N. J., Farr, A. L. and Randall, J. Biol. Chem. 193, 265-275, (1951)) and DNA assay by the Hoechst method (West, D. C., Sattar, A. and Kumar, S., Anal. Biochem. 147, 289-295, (1985)).
# The IC50 concentration is the concentration corresponding to a 50% inhibition of cell growth.
# ALDH1 = test: Effect on the activity of ALDH1 after preincubation; type: biochemical, baker's yeast; settings: 400 μM
# Method: The procedure used is given below: 260 mU of ALDH from baker's yeast are preincubated at 37 or 0° C. in a mixture of 1 mM EDTA, 100 mM KCl, in 60 mM of sodium phosphate buffer pH 6 in a final volume of 200 μl.
# To each tube containing the 200 μl of mixture, the test compound is added to a concentration of 400 μM, with the exception of a control series which contains no test compound.
# The incubation carried out at 0° C. or at 37° C. is stopped by adding 100 μg of BSA (bovine serum albumin) and acetone at −20° C. to a final concentration of 80% in order to precipitate the proteins (ALDH and BSA). The tubes are left at −20° C. for 1 hour and then centrifuged at 10 000 rpm for 10 minutes and washed with 80% acetone. […]
# The reaction is started by adding 2 mM of propanal and the optical density (OD) is measured at 340 nm at T=0 and at T=5, 10, 20 and 30 minutes.
# The activity of the enzyme is measured by the variation in optical density Δ OD per minute (Quash G. et al., Enzymology and molecular biology of carbonyl metabolism, Weiner et al. eds., Kluwer Academic/Plenum Publishers, New York, 97-106).
# The percentage activity (A %) of the ALDH1 enzyme obtained at different preincubation times with the compound of Example 1 at 0° C. […] (represented by Δ) is measured as a function of the time t (expressed in minutes).
compound,measurement,setting,value
"CSC(=O)C#CC(C)(C)N(C)C [Example 1, S-methyl 4-dimethyl-amino-4-methyl-2-pentynethioate]",IC50,DU145 cells,5.9 µM
same,Inhibition of the activity of the ALDH1 enzyme,ALDH1; pre-incubation at 0° C.,no effect of inhibition
same,Inhibition of the activity of the ALDH1 enzyme,ALDH1; pre-incubation at 37° C.,an effect of inhibition of the activity of the enzyme is observed
